Experiments:
[1] = system: C2C12 myoblasts; assay: Gap closure of damaged monolayers with low/medium-level stretching; assay type: cell-based, Mouse
Experimental: (§1) Mouse myoblast or fibroblast cells (1×10^6 per well, previously grown media containing 1 mM NaPy) were seeded 1-3 days prior to performing a stretching experiment in a six-well (31-mm diameter) culture plate with an elastic, 0.51-mm thick, transparent and collagen-coated substrata bottom (Flexcell Inc., Burlington, N.C.). Cells were grown on the stretchable-bottom plate until a confluent monolayer had formed. The plates with cells were then mounted onto our stretching apparatus and radial stretching to tensile strains of 3% or 6% or 0% (no-stretch) control was applied Immediately following stretching, compressive deformation damage was induced in each monolayer using a rigid optic fiber (˜350 μm diameter). Cells at the center of each well were crushed, inducing an approximately circular cell-damage area with varying sizes (0.05-0.5 mm^2). Media was replaced to remove any cell debris and the fresh media contained varying concentrations of sodium pyruvate: 0, 1 or 5 mM. Then the time-dependent gap closure was evaluated to reveal kinematic features The stretching apparatus was mounted in the motorized microscope stage to facilitate for time-lapse imaging of progression of the gap closure. Cell viability throughout the prolonged experiments was ensured by maintaining 37° C., 5% CO2 and high humidity, using an incubator that enclosed the microscope (Life Imaging Services, Basel, Switzerland).
(§2) Time-lapse imaging was performed using a fully motorized, inverted fluorescence microscope (Olympus IX81, Tokyo, Japan) with a custom MATLAB 2012b (The MathWorks, Natick, Mass.) graphical user interface (GUI) module to automatically control lens positioning and collect images of the gap every 10 minutes for up to 24 hours. Images were taken using an XR Mega-10AWCL camera (Stanford Photonics Inc., Palo Alto, Calif.), using a 10×/NA 0.3 long working-distance, air immersion objective lens at a final magnification of 646.8 nm/pixel. A custom algorithm in MATLAB 2012b was used to automatically analyze the time-progression images of the gap area closure and quantify cell migration and gap closure progression, as described in Topman et al. (Micron 51:9-12; 2012); Toume et al. Int Wound J 14:698-703; 2017). Briefly, the time-dependent area was fit to a Richard's function, which is an asymmetric sigmoid, by minimizing the mean squared error. Using the fitted curve, the maximum migration rate was calculated, which is the maximal slope of the area vs. time, Richards fit. The normalized maximum migration rate was obtained by dividing the maximum migration rate by the initial gap area. In addition, the time for 90% gap area closure, which is indicative of the end of the en masse cell migration regime was obtained (Topman et al. 2012; Med Eng Phys 34:225-232).
(§3) Results of the different conditions were compared using a two-way analysis of variance (ANOVA) for unequal length samples; Statistical analysis was performed in MATLAB. The interaction parameter was found significant, thus the interactions between the sodium pyruvate concentration and the stretching level and were important; in cases where only the interaction parameter the interaction is considered ‘simple’ by typical definitions in statistical analysis. A one-way ANOVA was also performed in conjunction with post-hoc Tukey-Kramer tests to identify statistically significant differences levels of sodium pyruvate for each level of stretching and vice versa. A P-value lower than 0.05 was considered significant.
(§4) Both tested cell types, C2C12 myoblasts and NIH3T3 fibroblasts were cultured in media with 1 mM sodium pyruvate up to the time of infliction of compressive deformation damage (micro-gap formation) and concurrent application of radial stretching. […]

[2] = system: NIH3T3 fibroblasts; assay: as above; assay type: cell-based, Mouse; conditions: 0% stretching, post-injury NaPy 0, 1 or 5 mM
Experimental: as §1, §2, §3, §4

[3] = cited from earlier work
[4] = group given NaPy eye drops, 2 hours prior to extraction; control 0.145+/−0.06 mM; cited from earlier work
[5] = system: C2C12 myoblasts; assay: Membrane permeability (FITC-labeled 4 kDa dextran uptake, FACS) under damage-level 12% strain; assay type: cell-based, murine
Experimental: (§5) For each experiment, 300,000 cells were cultured 24 hours in parallel on 2-4 bioflexcell collagen-coated 6-well plates (Flexcell Inc., North Carolina). On the day of the experiment the cell growth media (with 0/1 mM NaPy) was replaced with media supplemented with different NaPy concentrations (0, 1 or 5 mM) and cells were incubated for 4 hours; this constitutes the pre-treatment of the cells. A four-hour pre-treatment was chosen as that is a clinically relevant time-scale during preparation e.g. before planned surgical procedures.
(§6) Each 6-well plate contained two wells with each of the three NaPy pre-treatment concentrations. After 4 hours, all but one of the bioflexcell plates were simultaneously subjected to damaging-level, sustained strain-loads of 12% radial stretching for 3 hours and one plate in each experiment was not stretched for control. […] Next, cells were centrifuged (900 rpm for 5 min) and resuspended in 0.5 ml of PBS within 12×75 mm polystyrene test tubes for use with fluorescence activated cell sorting (FACS).
(§7) Permeability of the plasma membrane was quantified by cell uptake of the small (4 kDa) FITC-labeled Dextran. Fluorescence intensity changes due to internalized FITC-labeled Dextran and auto fluorescence of over 20,000 cells per sample was measured using a fluorescence-activated cell sorting (FACS) Calibur system (BD Biosciences, New Jersey) with the fluorescence channel. […] For each pre-treatment (and growth media) condition 4 measurements were collected: strain-loaded cells with or without added dextran, and unstrained control cells with or without dextran; samples without dextran provide a control for native cell auto-fluorescence (AF). The percent change in dextran uptake is calculated by the mean value of the strained sample relative to the unstrained samples, after subtracting the auto-fluorescence for each. […]

[6] = system: NIH3T3 fibroblasts; assay: as above; assay type: cell-based, murine; conditions: increasing concentrations of NaPy pre-treatment (0, 1, 5 mM, 4 hours), 12% strain 3 hrs
Experimental: as §5, §6, §7

[7] = 3%-cream applied on the skin, after 24 hours; cited from earlier work
[8] = 1 mM NaPy with 3% stretching vs no NaPy
[9] = 5 mM NaPy with 3% stretching vs no NaPy
[10] = adopted from the literature, model input

SMILES | gap closure rate ([1]; 0% stretching, post-injury NaPy 0, 1 or 5 mM) | normalized gap-closure rate ([1]; 1 mM NaPy post-injury with 3% stretching (16.3 without NaPy)) | time to reach 90% gap coverage ([1]; 1 mM NaPy with 3% stretching (9.2 hrs without NaPy)) | decrease of time to reach 90% gap coverage [1, 8] | increase of normalized gap-closure rate [1, 8] | normalized gap-closure rate ([1]; 5 mM NaPy post-injury with 3% stretching (16.3 without NaPy)) | time to reach 90% gap coverage ([1]; 5 mM NaPy with 3% stretching (9.2 hrs without NaPy)) | decrease of time to reach 90% gap coverage [1, 9] | increase of normalized gap-closure rate [1, 9] | gap closure ([1]; 3% strain combined with post-injury exogenous NaPy supplement (1 or 5 mM)) | gap closure rate [2] | Solubility in the aqueous phase of the dressing and tissues [3, 10] | diffusivity in the aqueous phase of the dressing and tissues [3, 10] | free diffusivity in the aqueous phase of the dressing and tissues [3, 10] | log Ko/W ([3]; input of the Kp equation) | level of NaPy in corneal tissue [4] | cell damage-induced uptake of dextran relative to control ([5]; NaPy pre-treatment 0, 1, 5 mM for 4 hours, then 12% sustained stretch 3 hrs) | strain-damage induced membrane poration ([5]; cultured in media containing 1 mM NaPy, pre-treated with 5 mM NaPy, 12% strain 3 hrs) | damage to membrane integrity (uptake relative to control) [6] | transdermal flux [7]
CC(=O)C(=O)[O-].[Na+] [NaPy, sodium pyruvate] | unaffected | 20.5 % area/hr | 7.3 h | 21% | 26% | 23.7 % area/hr | 6.3 h | 31% | 46% | successfully accelerated gap closure in a concentration dependent and statistically significant manner | unaffected | 100 mg/mL | 0.0005 mm^2/s | 0.001 mm^2/s | −5.05 | 350 to 525 µM | a reduction was observed in the cell damage-induced uptake of dextran relative to control that is proportional to the NaPy concentration | a reduction was observed in the strain-damage induced membrane poration to insignificant levels | reduced damage to membrane integrity | –
O=C(O)Cc1ccccc1Nc1c(Cl)cccc1Cl [Diclofenac Sodium] | – | – | – | – | – | – | – | – | – | – | – | – | – | – | – | – | – | – | – | 0.321-0.943 nmol/cm^2·h

— patent US20210393558A1, “METHODS AND COMPOSITIONS FOR PREVENTION AND TREATMENT OF PRESSURE ULCERS” (TECHNION RESEARCH AND DEVELOPMENT FOUNDATION LTD., priority 2017, published 2021)
